Data set [1] relates to HCT116/VM46 (vinblastine-resistant strain of HCT116, Pgp over-expression) cells. Conditions: read-out: IC50 (nM) HCT116/VM46; reported in Leggans et al., Org. Lett. 2012; cited from earlier work.
The test system of data set [2] is L1210 (mouse lymphocytic leukemia) cells. Conditions: reported in Leggans et al., Org. Lett. 2012; cited from earlier work.
Data set [3] has as its system HCT116 (human colorectal carcinoma) cells. Conditions: cited from earlier work; for IC50: reported in Leggans et al., Org. Lett. 2012.
The test system of data set [4] is HCT116/VM46 (vinblastine-resistant strain of HCT116, Pgp over-expression) cells. Description: Cell growth inhibition assay, HCT116/VM46. Conditions: for IC50: read-out: IC50 (nM) HCT116/VM46, resistant human colon cancer cell line, Pgp over-expression; for fold improvement over vinblastine, HCT116/VM46: relative to vinblastine. On the procedure:
(§1) A population of cells (>1×10^6 cells/mL as determined with a hemocytometer) was diluted with an appropriate amount of Dulbecco-modified Eagle Medium (DMEM, Gibco) containing 10% fetal bovine serum (FBS, Gibco) to a final concentration of 30,000 cells/mL.
(§2) To each well of a 96-well plate (Corning Costar), 100 μL of the cell-media solution was added with a multichannel pipette. The cultures were incubated at 37° C. in an atmosphere of 5% CO2 and 95% humidified air for 24 hours. The test compounds were added to the plate as follows: test substances were diluted in DMSO to a concentration of 1 mM and 10-fold serial dilutions were performed on a separate 96-well plate. Fresh culture medium (100 μL) was added to each well of cells to constitute 200 μL of medium per well followed by 2 μL of each test agent. Compounds were tested in duplicate (n=2-8 times) at six concentrations between 0-1,000 nM or 0-10,000 nM. Following addition, cultures were incubated for an additional 72 hours.
(§3) The plates were incubated at 37° C. for either 5 minutes (L1210) or 15 minutes (HCT116 and HCT116/VM46).

Data set [5] relates to HCT116 (human colorectal carcinoma) cells. The data set can be described thus: Cell growth inhibition assay, HCT116. Conditions: HCT116 human colon cancer cell line; avg of 4-16 determinations; read-out: IC50 (nM) HCT116. Type of data set: cell-based. On the procedure: as §1, §2, §3
Data set [6] has as its system L1210 (mouse lymphocytic leukemia) cells. The data set can be described thus: Cell growth inhibition assay, L1210. It counts as cell-based. Conditions: L1210 murine leukemia cell line; avg of 4-16 determinations. The procedure: as §1, §2, §3

Like-named read-outs stand apart in the source and are kept apart here.

As to `CCC1(NC(=O)OC)CC2CN(CCc3c([nH]c4ccccc34)C(C(=O)OC)(c3cc4c(cc3OC)N(C)C3C(O)(C(=O)OC)C(OC(C)=O)C5(CC)C=CCN6CCC43C65)C2)C1` (centres unmarked) [Compound 10], the IC50 was 2600 nM in data set [1], 50 nM in data set [2] and 75 nM in data set [3].
Turning to `CCC1(NC(C)=O)CC2CN(CCc3c([nH]c4ccccc34)C(C(=O)OC)(c3cc4c(cc3OC)N(C)C3C(O)(C(=O)OC)C(OC(C)=O)C5(CC)C=CCN6CCC43C65)C2)C1` (centres unmarked) [Compound 9], the IC50 was 7500 nM in data set [1], 65 nM in data set [2] and 90 nM in data set [3].
Consider `CCC1CC2CN(CCc3c([nH]c4ccccc34)C(C(=O)OC)(c3cc4c(cc3OC)N(C)C3C(O)(C(=O)OC)C(OC(C)=O)C5(CC)C=CCN6CCC43C65)C2)C1` (centres unmarked) [Compound 3, 20′-deoxyvinblastine], for which the results for the IC50 in data set [1], in data set [2] and in data set [3] were 600 nM, 50 nM and 60 nM, respectively.
Take `CC[C@]1(O)C[C@@H]2CN(CCc3c([nH]c4ccc(F)cc34)[C@@](C(=O)OC)(c3cc4c(cc3OC)N(C)[C@H]3[C@@](O)(C(=O)OC)[C@H](OC(C)=O)[C@]5(CC)C=CCN6CC[C@]43[C@@H]65)C2)C1` [Compound 48, reference compound]: the “fold improvement in activity over vinblastine” value in data set [3] (Gotoh et al., ACS Med. Chem. Lett. 2011) is recorded as 8 fold. The figures for the IC50 in data set [4] and in data set [5] were 80 nM and 0.8 nM, respectively.
Turning to `CCC1(SC#N)CC2CN(CCc3c([nH]c4ccccc34)C(C(=O)OC)(c3cc4c(cc3OC)N(C)C3C(O)(C(=O)OC)C(OC(C)=O)C5(CC)C=CCN6CCC43C65)C2)C1` (centres unmarked) [SCN], the IC50 is 2900 nM in data set [1], 560 nM in data set [2] and 550 nM in data set [3].
For the compound `CCC1(NC=O)CC2CN(CCc3c([nH]c4ccccc34)C(C(=O)OC)(c3cc4c(cc3OC)N(C)C3C(O)(C(=O)OC)C(OC(C)=O)C5(CC)C=CCN6CCC43C65)C2)C1` (centres unmarked) [NHCHO], the IC50 in data set [1] is 6500 nM; in data set [2], 65 nM; in data set [3], 85 nM.
For `CC1(C)CCCC(C)(C)N1[O]` [TEMPO], the IC50 in data set [1] was 5600 nM; in data set [2], 4000 nM; in data set [3] it was 3800 nM.
`CCC1(NC(=O)C(F)(F)F)CC2CN(CCc3c([nH]c4ccccc34)C(C(=O)OC)(c3cc4c(cc3OC)N(C)C3C(O)(C(=O)OC)C(OC(C)=O)C5(CC)C=CCN6CCC43C65)C2)C1` (centres unmarked) [NHCOCF3]: the IC50 in data set [1] was 8100 nM; in data set [2], 660 nM; in data set [3], 690 nM.
Consider `CC[C@]1(N=C=S)C[C@@H]2CN(CCc3c([nH]c4ccccc34)[C@@](C(=O)OC)(c3cc4c(cc3OC)N(C)[C@H]3[C@@](O)(C(=O)OC)[C@H](OC(C)=O)[C@]5(CC)C=CCN6CC[C@]43[C@@H]65)C2)C1` [Compound 5, 20′-isothiocyano-vinblastine], for which the IC50 in data set [1] was 7000 nM; in data set [2] it was 590 nM; in data set [3], 530 nM.
Consider `CC[C@]1(NC(=O)N2CCSCC2)C[C@@H]2CN(CCc3c([nH]c4ccccc34)[C@@](C(=O)OC)(c3cc4c(cc3OC)N(C)[C@H]3[C@@](O)(C(=O)OC)[C@H](OC(C)=O)[C@]5(CC)C=CCN6CC[C@]43[C@@H]65)C2)C1` [Compound 53], for which the values for the IC50 in data set [6], in data set [4] and in data set [5] were 2.1 nM, 50 nM and 0.88 nM, respectively.
For the compound `CC[C@]1(NC(=O)NC2CCCCC2)C[C@@H]2CN(CCc3c([nH]c4ccccc34)[C@@](C(=O)OC)(c3cc4c(cc3OC)N(C)[C@H]3[C@@](O)(C(=O)OC)[C@H](OC(C)=O)[C@]5(CC)C=CCN6CC[C@]43[C@@H]65)C2)C1` [Compound 21], the IC50 was found to be 5.8 nM in data set [6], 450 nM in data set [4] and 5.4 nM in data set [5].
The corresponding values for `CCC1(NC(=O)Nc2ccc(OC)cc2)CC2CN(CCc3c([nH]c4ccccc34)C(C(=O)OC)(c3cc4c(cc3OC)N(C)C3C(O)(C(=O)OC)C(OC(C)=O)C5(CC)C=CCN6CCC43C65)C2)C1` (centres unmarked) [Compound 28] are 4.9 nM, 230 nM and 2 nM.
For the compound `CC[C@]1(NC(=O)NCCO)C[C@@H]2CN(CCc3c([nH]c4ccccc34)[C@@](C(=O)OC)(c3cc4c(cc3OC)N(C)[C@H]3[C@@](O)(C(=O)OC)[C@H](OC(C)=O)[C@]5(CC)C=CCN6CC[C@]43[C@@H]65)C2)C1` [Compound 22], the results for the IC50 in data set [6], in data set [4] and in data set [5] were 48 nM, more than 1000 nM and 8.8 nM, respectively.
As to `CC[C@]1(NC(=O)NC2CC2)C[C@@H]2CN(CCc3c([nH]c4ccccc34)[C@@](C(=O)OC)(c3cc4c(cc3OC)N(C)[C@H]3[C@@](O)(C(=O)OC)[C@H](OC(C)=O)[C@]5(CC)C=CCN6CC[C@]43[C@@H]65)C2)C1` [Compound 18], the results for the IC50 in data set [6], in data set [4] and in data set [5] were 3.9 nM, 85 nM and 0.73 nM, respectively. The “fold improvement over vinblastine, HCT116/VM46” value in data set [4] was found to be 10 fold.
As to `CC[C@]1(NC(=O)N2Cc3ccc(OC)cc3C2)C[C@@H]2CN(CCc3c([nH]c4ccccc34)[C@@](C(=O)OC)(c3cc4c(cc3OC)N(C)[C@H]3[C@@](O)(C(=O)OC)[C@H](OC(C)=O)[C@]5(CC)C=CCN6CC[C@]43[C@@H]65)C2)C1` [Compound 59], the IC50 in data set [6] amounted to 0.61 nM; in data set [4], 8.7 nM; in data set [5] it was 0.69 nM.
Turning to `CC[C@]1(NC(=O)N2CCC(c3ccccc3)CC2)C[C@@H]2CN(CCc3c([nH]c4ccccc34)[C@@](C(=O)OC)(c3cc4c(cc3OC)N(C)[C@H]3[C@@](O)(C(=O)OC)[C@H](OC(C)=O)[C@]5(CC)C=CCN6CC[C@]43[C@@H]65)C2)C1` [Compound 56], the values for the IC50 in data set [6], in data set [4] and in data set [5] were 5.3 nM, 55 nM and 3.1 nM, respectively.
In the same order, the values of `CC[C@]1(NC(=O)Nc2ccc(C(F)(F)F)cc2)C[C@@H]2CN(CCc3c([nH]c4ccccc34)[C@@](C(=O)OC)(c3cc4c(cc3OC)N(C)[C@H]3[C@@](O)(C(=O)OC)[C@H](OC(C)=O)[C@]5(CC)C=CCN6CC[C@]43[C@@H]65)C2)C1` [Compound 27] are 7.3 nM, 610 nM and 7.1 nM.
Turning to `CC[C@]1(NC(=O)Nc2ccccc2)C[C@@H]2CN(CCc3c([nH]c4ccccc34)[C@@](C(=O)OC)(c3cc4c(cc3OC)N(C)[C@H]3[C@@](O)(C(=O)OC)[C@H](OC(C)=O)[C@]5(CC)C=CCN6CC[C@]43[C@@H]65)C2)C1` [Compound 23], the IC50 in data set [6] turned out to be 6.5 nM; in data set [4] it was 390 nM; in data set [5], 5.1 nM.
For the compound `CC[C@]1(NC(=O)Nc2ccc(C)cc2)C[C@@H]2CN(CCc3c([nH]c4ccccc34)[C@@](C(=O)OC)(c3cc4c(cc3OC)N(C)[C@H]3[C@@](O)(C(=O)OC)[C@H](OC(C)=O)[C@]5(CC)C=CCN6CC[C@]43[C@@H]65)C2)C1` [Compound 26], the IC50 in data set [6] is 4.5 nM; in data set [4], 330 nM; in data set [5] it was 4.8 nM.
For the compound `CC[C@]1(NC(=O)NCc2ccccn2)C[C@@H]2CN(CCc3c([nH]c4ccccc34)[C@@](C(=O)OC)(c3cc4c(cc3OC)N(C)[C@H]3[C@@](O)(C(=O)OC)[C@H](OC(C)=O)[C@]5(CC)C=CCN6CC[C@]43[C@@H]65)C2)C1` [Compound 33], the IC50 in data set [6] was found to be 24 nM; in data set [4] it was 670 nM; in data set [5], 5.6 nM.
For `CC[C@]1(NC(=O)N2CCN(C)CC2)C[C@@H]2CN(CCc3c([nH]c4ccccc34)[C@@](C(=O)OC)(c3cc4c(cc3OC)N(C)[C@H]3[C@@](O)(C(=O)OC)[C@H](OC(C)=O)[C@]5(CC)C=CCN6CC[C@]43[C@@H]65)C2)C1` [Compound 54], the IC50 turned out to be 7.7 nM in data set [6], 710 nM in data set [4] and 3.4 nM in data set [5].
In the case of `CCC1(N=[N+]=[N-])CC2CN(CCc3c([nH]c4ccccc34)C(C(=O)OC)(c3cc4c(cc3OC)N(C)C3C(O)(C(=O)OC)C(OC(C)=O)C5(CC)C=CCN6CCC43C65)C2)C1` (centres unmarked) [Compound N3], the IC50 in data set [1] is 5500 nM; in data set [2], 670 nM; in data set [3], 690 nM.
As for `CCNC(=O)N[C@@]1(CC)C[C@@H]2CN(CCc3c([nH]c4ccccc34)[C@@](C(=O)OC)(c3cc4c(cc3OC)N(C)[C@H]3[C@@](O)(C(=O)OC)[C@H](OC(C)=O)[C@]5(CC)C=CCN6CC[C@]43[C@@H]65)C2)C1` [Compound 15], the figures for the IC50 in data set [6], in data set [4] and in data set [5] were 2.1 nM, 90 nM and 0.73 nM, respectively. In data set [4], the “fold improvement over vinblastine, HCT116/VM46” value turned out to be 10 fold.
For the compound `CC[C@]1(NC(=O)NC(C)(C)C)C[C@@H]2CN(CCc3c([nH]c4ccccc34)[C@@](C(=O)OC)(c3cc4c(cc3OC)N(C)[C@H]3[C@@](O)(C(=O)OC)[C@H](OC(C)=O)[C@]5(CC)C=CCN6CC[C@]43[C@@H]65)C2)C1` [Compound 20], the IC50 came out at 40 nM in data set [6], 670 nM in data set [4] and 20 nM in data set [5].

The record behind these values is patent publication US20150291610A1, “C20' Urea Derivatives of Vinca Alkaloids” (THE SCRIPPS RESEARCH INSTITUTE, priority 2012, published 2015).
